{
  "source": "patent US12145913B2",
  "about": "“Inhibition of Olig2 activity” (Curtana Pharmaceuticals, Inc., priority 2016, dated 2024)",
  "data": [
    {"system": "GBM8 human glioblastoma cells", "experiment": "GBM8 viability assay (Cell Titer Glo)", "format": "cell-based", "conditions": "72 h, Table 1, 3 days incubation, luminescence", "how_it_was_run": "(§1)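 Patient-derived GBM4 and GBM8 neurosphere cells, 4000 per well in EGF/bFGF/heparin-supplemented NeuroCult medium, were exposed to compound (added in 1% DMSO solution) for 3 days at 37° C. Growth was read by CellTiter-Glo luminescence versus DMSO wells, and IC50s came from 4-parameter fits of serial dilutions.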", "units": {"IC50": "nM"}, "values": [
      {"smiles": "CC(=O)NCCNc1cc(C)nc(NC(=O)Nc2ccc3ccccc3c2)n1", "note": "[Compound 35, N-(2-((6-methyl-2-(3-(naphthalen-2-yl)ureido)pyrimidin-4-yl)amino)ethyl)acetamide]", "IC50": "< 500"},
      {"smiles": "Cc1cc(NCCCN)nc(NC(=O)Nc2ccc3ccccc3c2)n1", "note": "[Compound 4, 1-(4-((3-aminopropyl)amino)-6-methylpyrimidin-2-yl)-3-(naphthalen-2-yl)urea]", "IC50": "< 500"},
      {"smiles": "Cc1cc(NCCCN(C)C)nc(NC(=O)Nc2ccc3ccccc3c2)n1", "note": "[Compound 3, 1-(4-((3-(dimethylamino)propyl)amino)-6-methylpyrimidin-2-yl)-3-(naphthalen-2-yl)urea]", "IC50": "< 500"},
      {"smiles": "Cc1cc(NCCNS(C)(=O)=O)nc(NC(=O)Nc2ccc3ccccc3c2)n1", "note": "[Compound 36, N-(2-((6-methyl-2-(3-(naphthalen-2-yl)ureido)pyrimidin-4-yl)amino)ethyl)methanesulfonamide]", "IC50": "< 500"},
      {"smiles": "CCNc1cc(C)nc(NC(=O)Nc2ccc3ccccc3c2)n1", "note": "[Compound 19]", "IC50": "< 500"},
      {"smiles": "CC(=O)NCCNc1cc(C)nc(NC(=O)Nc2ccc3ccccc3n2)n1", "note": "[Compound 101, N-(2-((6-methyl-2-(3-(quinolin-2-yl)ureido)pyrimidin-4-yl)amino)ethyl)acetamide]", "IC50": "500 to 5000"},
      {"smiles": "Cc1cc(NCCC(N)=O)nc(NC(=O)Nc2ccc3ccccc3c2)n1", "note": "[Compound 26, 3-((6-methyl-2-(3-(naphthalen-2-yl)ureido)pyrimidin-4-yl)amino)propanamide]", "IC50": "< 500"},
      {"smiles": "Cc1cc(NCCCN)nc(NC(=O)Nc2cc3ccccc3cn2)n1", "note": "[Compound 91, 1-(4-((3-aminopropyl)amino)-6-methylpyrimidin-2-yl)-3-(isoquinolin-3-yl)urea]", "IC50": "500 to 5000"},
      {"smiles": "Cc1cc(NCCCN(C)C)nc(NC(=O)Nc2ccc3occc3c2)n1", "note": "[Compound 80, 1-(benzofuran-5-yl)-3-(4-((3-(dimethylamino)propyl)amino)-6-methylpyrimidin-2-yl)urea]", "IC50": "< 500"},
      {"smiles": "CC(=O)NCCNc1cc(C)nc(NC(=O)Nc2ccc(OC(C)C)cc2)n1", "note": "[Compound 140, N-(2-((2-(3-(4-isopropoxyphenyl)ureido)-6-methylpyrimidin-4-yl)amino)ethyl)acetamide]", "IC50": "< 500"},
      {"smiles": "Cc1cc(NCCN(C)C)nc(NC(=O)Nc2ccc3ccccc3c2)n1", "note": "[Compound 6]", "IC50": "< 500"},
      {"smiles": "Cc1cc(NCCCN(C)C)nc(NC(=O)Nc2ccc3ccncc3c2)n1", "note": "[Compound 114, 1-(4-((3-(dimethylamino)propyl)amino)-6-methylpyrimidin-2-yl)-3-(isoquinolin-7-yl)urea]", "IC50": "< 500"},
      {"smiles": "CC(=O)NCCNc1cc(C)nc(NC(=O)Nc2ccc3cnccc3c2)n1", "note": "[Compound 67, N-(2-((2-(3-(isoquinolin-6-yl)ureido)-6-methylpyrimidin-4-yl)amino)ethyl)acetamide]", "IC50": "< 500"},
      {"smiles": "O=C(Nc1ccc2ccccc2c1)Nc1nccc(NO)n1", "note": "[Compound 161, 1-(4-(hydroxyamino)pyrimidin-2-yl)-3-(naphthalen-2-yl)urea]", "IC50": "500 to 5000"},
      {"smiles": "Cc1cc(NCCc2ccc[nH]2)nc(NC(=O)Nc2ccc3ccccc3c2)n1", "note": "[Compound 24, 1-(4-((2-(1H-pyrrol-2-yl)ethyl)amino)-6-methylpyrimidin-2-yl)-3-(naphthalen-2-yl)urea]", "IC50": "< 500"},
      {"smiles": "COC(=O)CCNc1cc(C)nc(NC(=O)Nc2ccc3ccccc3c2)n1", "note": "[Compound 25, methyl 3-((6-methyl-2-(3-(naphthalen-2-yl)ureido)pyrimidin-4-yl)amino)propanoate]", "IC50": "< 500"},
      {"smiles": "Cc1cc(NCCN)nc(NC(=O)Nc2ccc3cnccc3c2)n1", "note": "[Compound 52, 1-(4-((2-aminoethyl)amino)-6-methylpyrimidin-2-yl)-3-(isoquinolin-6-yl)urea]", "IC50": "500 to 5000"},
      {"smiles": "Cc1cc(NCCCN)nc(NC(=O)Nc2ccc3ccccc3n2)n1", "note": "[Compound 99, 1-(4-((3-aminopropyl)amino)-6-methylpyrimidin-2-yl)-3-(quinolin-2-yl)urea]", "IC50": "500 to 5000"},
      {"smiles": "Cc1cc(NCCO)nc(NC(=O)Nc2ccc(OC(F)(F)F)cc2)n1", "note": "[Compound 145, 1-(4-((2-hydroxyethyl)amino)-6-methylpyrimidin-2-yl)-3-(4-(trifluoromethoxy)phenyl)urea]", "IC50": "< 500"},
      {"smiles": "CC(=O)NCCNc1cc(C)nc(NC(=O)Nc2ccc3ncccc3c2)n1", "note": "[Compound 110, N-(2-((6-methyl-2-(3-(quinolin-6-yl)ureido)pyrimidin-4-yl)amino)ethyl)acetamide]", "IC50": "500 to 5000"},
      {"smiles": "CC(=O)NCCCNc1cc(C)nc(NC(=O)Nc2ccc3ccncc3c2)n1", "note": "[Compound 118, N-(3-((2-(3-(isoquinolin-7-yl)ureido)-6-methylpyrimidin-4-yl)amino)propyl)acetamide]", "IC50": "< 500"},
      {"smiles": "CN(C)CCCNc1ccnc(NC(=O)Nc2ccc3ccccc3c2)n1", "note": "[Compound 160, 1-(4-((3-(dimethylamino)propyl)amino)pyrimidin-2-yl)-3-(naphthalen-2-yl)urea]", "IC50": "< 500"},
      {"smiles": "Cc1cc(NCC(=O)N(C)C)nc(NC(=O)Nc2ccc3cnccc3c2)n1", "note": "[Compound 59]", "IC50": "500 to 5000"},
      {"smiles": "O=C(Nc1ccc(OC(F)(F)F)cc1)Nc1nccc(Cl)n1", "note": "[Compound 162, 1-(4-Chloropyrimidin-2-yl)-3-(4-(trifluoromethoxy)phenyl)urea]", "IC50": "< 500"},
      {"smiles": "Cc1cc(NCC(O)CO)nc(NC(=O)Nc2ccc3ccccc3c2)n1", "note": "(centres unmarked) [Compound 18]", "IC50": "< 500"},
      {"smiles": "CNC(=O)CCNc1cc(C)nc(NC(=O)Nc2ccc3ccccc3c2)n1", "note": "[Compound 43, N-methyl-3-((6-methyl-2-(3-(naphthalen-2-yl)ureido)pyrimidin-4-yl)amino)propanamide]", "IC50": "< 500"},
      {"smiles": "Cc1cc(NCCN)nc(NC(=O)Nc2ccc3ccccc3n2)n1", "note": "[Compound 98, 1-(4-((2-aminoethyl)amino)-6-methylpyrimidin-2-yl)-3-(quinolin-2-yl)urea]", "IC50": "500 to 5000"},
      {"smiles": "CNCCCCNc1cc(C)nc(NC(=O)Nc2ccc3cnccc3c2)n1", "note": "[Compound 65, 1-(isoquinolin-6-yl)-3-(4-methyl-6-((4-(methylamino)butyl)amino)pyrimidin-2-yl)urea]", "IC50": "< 500"},
      {"smiles": "CCCCNc1cc(C)nc(NC(=O)Nc2ccc3cnccc3c2)n1", "note": "[Compound 56]", "IC50": "< 500"},
      {"smiles": "Cc1cc(NCCCN(C)C)nc(NC(=O)Nc2ccc(OC(C)C)cc2)n1", "note": "[Compound 136, 1-(4-((3-(dimethylamino)propyl)amino)-6-methylpyrimidin-2-yl)-3-(4-isopropoxyphenyl)urea]", "IC50": "< 500"},
      {"smiles": "Cc1cc(NCCCN(C)C)nc(NC(=O)Nc2cccc(-c3ccccc3)c2)n1", "note": "[Compound 131, 1-([1,1′-biphenyl]-3-yl)-3-(4-((3-(dimethylamino)propyl)amino)-6-methylpyrimidin-2-yl)urea]", "IC50": "500 to 5000"},
      {"smiles": "Cc1cc(NCCNS(C)(=O)=O)nc(NC(=O)Nc2ccc(OC(C)C)cc2)n1", "note": "[Compound 139, N-(2-((2-(3-(4-isopropoxyphenyl)ureido)-6-methylpyrimidin-4-yl)amino)ethyl)methanesulfonamide]", "IC50": "< 500"},
      {"smiles": "CN(C)CCCNc1ccnc(NC(=O)Nc2ccc(Cl)c(Cl)c2)n1", "note": "[Compound 157, 1-(3,4-dichlorophenyl)-3-(4-((3-(dimethylamino)propyl)amino)pyrimidin-2-yl)urea]", "IC50": "500 to 5000"},
      {"smiles": "Cc1cc(NCCO)nc(NC(=O)Nc2ccc3ccccc3c2)n1", "note": "[Compound 8]", "IC50": "< 500"},
      {"smiles": "CNCCCNc1cc(C)nc(NC(=O)Nc2ccc3ccccc3c2)n1", "note": "[Compound 31, 1-(4-methyl-6-((3-(methylamino)propyl)amino)pyrimidin-2-yl)-3-(naphthalen-2-yl)urea]", "IC50": "< 500"}
    ]},
    {"system": "GBM8 human glioblastoma cells", "experiment": "GBM8 viability assay (Cell Titer Glo)", "format": "cell-based", "conditions": "72 h, Table 2, 3 days incubation, luminescence", "how_it_was_run": "as §1", "units": {"IC50": "nM"}, "values": [
      {"smiles": "CNCCCNc1cc(C2CC2)nc(NC(=O)Nc2ccc(OC(F)(F)F)cc2)n1", "note": "[Compound 211, 1-(4-cyclopropyl-6-((3-(methylamino)propyl)amino)pyrimidin-2-yl)-3-(4-(trifluoromethoxy)phenyl)urea]", "IC50": "500 to 5000"}
    ]},
    {"system": "GBM4 human glioblastoma cells", "experiment": "GBM4 viability assay (Cell Titer Glo)", "format": "cell-based", "conditions": "72 h, Table 1, 3 days incubation, luminescence, read-out: GBM4 IC50", "description": "(§2) Cell culture medium was prepared from a NSA proliferation kit (Neurocult) and NeuroCult supplements (Stemcell Tech Cat. #05751) and treated with 20 μL of 10 μg/mL rh EGF, 10 μL of 10 μg/mL rh bFGF and 10 μL of 0.2% Heparin. In this medium, human glioblastoma cells were cultured in ultra-low attachment tissue culture flasks until 1×10^6 cells ml was achieved (GBM4 and GBM8 are distinct neurosphere cell cultures derived from these human patient tissues). GBM4 and GBM8 cells were dissociated and 10 mL of media containing 4000 human glioblastoma cells per 90 μL were transferred to an ultra-low binding 96-well plate and incubated at 37° C. overnight. On the following day, 10 μL of a 1% DMSO solution of test compound in assay medium was added to wells containing the cell suspension and the mixture incubated at 37° C. for 3 days. At this time, the plate was removed from the incubator and allowed to reach room temperature. After about 30 minutes, 50 μL of Cell Titer Glo solution was added to each well and the plate shaken for 1 minute at low speed. After 10 minutes luminescence was recorded using a Tecan Safire2 reader.\n(§3) Reduction in luminescence compared to DMSO only control wells was used to determine the percentage inhibition of cell growth. IC50s were calculated using the % inhibition of luminescence for serial dilutions of compounds fitted to a 4-parameter fit within the Prism (San Diego) curve fitting program. Tables 1 (compounds 3-188) and 2 (compounds 190-212) show the GBM4 IC50 and GBM8 IC50 for compounds described herein.", "units": {"IC50": "nM"}, "values": [
      {"smiles": "Cc1cc(NCCCN)nc(NC(=O)Nc2ccc3ccccc3c2)n1", "note": "[Compound 4, 1-(4-((3-aminopropyl)amino)-6-methylpyrimidin-2-yl)-3-(naphthalen-2-yl)urea]", "IC50": "< 500"},
      {"smiles": "Cc1cc(NCCCN(C)C)nc(NC(=O)Nc2ccc3ccccc3c2)n1", "note": "[Compound 3, 1-(4-((3-(dimethylamino)propyl)amino)-6-methylpyrimidin-2-yl)-3-(naphthalen-2-yl)urea]", "IC50": "< 500"}
    ]},
    {"system": "GBM4 human glioblastoma cells", "experiment": "GBM4 viability assay (Cell Titer Glo)", "format": "cell-based", "conditions": "Table 3, GBM4 cells, read-out: GBM4 IC50 (Cytotoxicity)", "description": "as §2, §3", "units": {"IC50": "nM"}, "values": [
      {"smiles": "CC(=O)NCCNc1cc(C)nc(NC(=O)Nc2ccc3ccccc3c2)n1", "note": "[Compound 35, N-(2-((6-methyl-2-(3-(naphthalen-2-yl)ureido)pyrimidin-4-yl)amino)ethyl)acetamide]", "IC50": 140},
      {"smiles": "Cc1cc(NCCNS(C)(=O)=O)nc(NC(=O)Nc2ccc3ccccc3c2)n1", "note": "[Compound 36, N-(2-((6-methyl-2-(3-(naphthalen-2-yl)ureido)pyrimidin-4-yl)amino)ethyl)methanesulfonamide]", "IC50": 40},
      {"smiles": "CCNc1cc(C)nc(NC(=O)Nc2ccc3ccccc3c2)n1", "note": "[Compound 19]", "IC50": 60}
    ]}
  ]
}
